Measured values as given in ChEMBL document CHEMBL1201862, “PubChem BioAssay data set” (2004).
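Briefly, cells in 96-well plates were exposed to five compound concentrations for 48 h, and endpoints were estimated by linear interpolation. GI50 = concentration required for 50% inhibition of growth.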 Activity calls are given as the source filed them. Cut-off read from the data, not from the text of the source: active = GI50 up to about 1.1 µM and inactive = higher.

Key:
Assay in all cases: inhibition of tumour cell growth, NCI panel, 48 h
HOP-92 = system: HOP-92
DLD-1 = system: DLD-1
CCRF-CEM = system: CCRF-CEM
SNB-78 = system: SNB-78
HCC 2998 = system: HCC 2998
MOLT-4 = system: MOLT-4
UO-31 = system: UO-31
HT-29 = system: HT-29
OVCAR-3 = system: OVCAR-3
NCI-H226 = system: NCI-H226
DMS-273 = system: DMS-273
HCT-116 = system: HCT-116
NCI-H460 = system: NCI-H460
LXFL 529 = system: LXFL 529
XF498 = system: XF498
SNB-75 = system: SNB-75
OVCAR-8 = system: OVCAR-8
786-0 = system: 786-0
SR = system: SR
HOP-62 = system: HOP-62
SNB-19 = system: SNB-19
SF-295 = system: SF-295
SK-MEL-2 = system: SK-MEL-2
HOP-18 = system: HOP-18
A549 = system: A549
M19-MEL = system: M19-MEL
SK-OV-3 = system: SK-OV-3
Malme-3M = system: Malme-3M
IGROV-1 = system: IGROV-1
TK-10 = system: TK-10
LOX IMVI = system: LOX IMVI
SF-539 = system: SF-539
EKVX = system: EKVX
RPMI-8226 = system: RPMI-8226
UACC-62 = system: UACC-62
NCI-H23 = system: NCI-H23
KM-20L2 = system: KM-20L2
SF-268 = system: SF-268
HCT-15 = system: HCT-15
SK-MEL-28 = system: SK-MEL-28
SW-620 = system: SW-620
ACHN = system: ACHN
OVCAR-5 = system: OVCAR-5
SN12C = system: SN12C
HL-60 = system: HL-60
UACC-257 = system: UACC-257
RXF 393 = system: RXF 393
U-251 = system: U-251
M14 = system: M14
COLO 205 = system: COLO 205
NCI-H522 = system: NCI-H522
CAKI-1 = system: CAKI-1
SK-MEL-5 = system: SK-MEL-5
K562 = system: K562
A498 = system: A498
KM12 = system: KM12
OVCAR-4 = system: OVCAR-4

Compound: Cc1cc2c(C)nn(Cc3ccc(Cl)cc3Cl)c2c(C#N)c1C
- GI50 (HOP-92): 35.9 µM (inactive)
- GI50 (DLD-1): > 100 µM (inactive)
- GI50 (CCRF-CEM): > 100 µM (inactive)
- GI50 (SNB-78): > 100 µM (inactive)
- GI50 (HCC 2998): > 100 µM (inactive)
- GI50 (MOLT-4): > 100 µM (inactive)
- GI50 (UO-31): > 100 µM (inactive)
- GI50 (HT-29): 78.5 µM (inactive)
- GI50 (OVCAR-3): > 100 µM (inactive)
- GI50 (NCI-H226): > 100 µM (inactive)
- GI50 (DMS-273): > 100 µM (inactive)
- GI50 (HCT-116): 69.7 µM (inactive)
- GI50 (NCI-H460): 79.4 µM (inactive)
- GI50 (LXFL 529): 82.4 µM (inactive)
- GI50 (XF498): 29.1 µM (inactive)
- GI50 (SNB-75): 89.9 µM (inactive)
- GI50 (OVCAR-8): > 100 µM (inactive)
- GI50 (786-0): > 100 µM (inactive)
- GI50 (SR): > 100 µM (inactive)
- GI50 (HOP-62): > 100 µM (inactive)
- GI50 (SNB-19): > 100 µM (inactive)
- GI50 (SF-295): 50.4 µM (inactive)
- GI50 (SK-MEL-2): > 100 µM (inactive)
- GI50 (HOP-18): > 100 µM (inactive)
- GI50 (A549): 86.3 µM (inactive)
- GI50 (M19-MEL): > 100 µM (inactive)
- GI50 (SK-OV-3): > 100 µM (inactive)
- GI50 (Malme-3M): > 100 µM (inactive)
- GI50 (IGROV-1): > 100 µM (inactive)
- GI50 (TK-10): > 100 µM (inactive)
- GI50 (LOX IMVI): > 100 µM (inactive)
- GI50 (SF-539): > 100 µM (inactive)
- GI50 (EKVX): > 100 µM (inactive)
- GI50 (RPMI-8226): > 100 µM (inactive)
- GI50 (UACC-62): > 100 µM (inactive)
- GI50 (NCI-H23): > 100 µM (inactive)
- GI50 (KM-20L2): > 100 µM (inactive)
- GI50 (SF-268): > 100 µM (inactive)
- GI50 (HCT-15): > 100 µM
- GI50 (SK-MEL-28): > 100 µM (inactive)
- GI50 (SW-620): > 100 µM (inactive)
- GI50 (ACHN): > 100 µM (inactive)
- GI50 (OVCAR-5): > 100 µM (inactive)
- GI50 (SN12C): > 100 µM (inactive)
- GI50 (HL-60): > 100 µM (inactive)
- GI50 (UACC-257): 37.8 µM (inactive)
- GI50 (RXF 393): 67 µM (inactive)
- GI50 (U-251): > 100 µM (inactive)

Compound: COC12C=C(C)C(CC1)CC2C(=O)O (centres undefined)
- GI50 (HOP-92): > 100 µM (inactive)
- GI50 (M14): > 100 µM (inactive)
- GI50 (DLD-1): > 100 µM (inactive)
- GI50 (CCRF-CEM): > 100 µM (inactive)
- GI50 (SNB-78): > 100 µM (inactive)
- GI50 (HCC 2998): > 100 µM (inactive)
- GI50 (MOLT-4): > 100 µM (inactive)
- GI50 (COLO 205): > 100 µM (inactive)
- GI50 (UO-31): > 100 µM (inactive)
- GI50 (HT-29): > 100 µM (inactive)
- GI50 (OVCAR-3): > 100 µM (inactive)
- GI50 (NCI-H522): > 100 µM (inactive)
- GI50 (NCI-H226): > 100 µM (inactive)
- GI50 (DMS-273): > 100 µM (inactive)
- GI50 (HCT-116): > 100 µM (inactive)
- GI50 (NCI-H460): > 100 µM (inactive)
- GI50 (LXFL 529): > 100 µM (inactive)
- GI50 (XF498): > 100 µM (inactive)
- GI50 (SNB-75): > 100 µM (inactive)
- GI50 (OVCAR-8): > 100 µM (inactive)
- GI50 (786-0): > 100 µM (inactive)
- GI50 (SR): > 100 µM (inactive)
- GI50 (HOP-62): > 100 µM (inactive)
- GI50 (SNB-19): > 100 µM (inactive)
- GI50 (SF-295): > 100 µM (inactive)
- GI50 (SK-MEL-2): > 100 µM (inactive)
- GI50 (HOP-18): > 100 µM (inactive)
- GI50 (A549): > 100 µM (inactive)
- GI50 (M19-MEL): > 100 µM (inactive)
- GI50 (CAKI-1): > 100 µM (inactive)
- GI50 (SK-OV-3): > 100 µM (inactive)
- GI50 (SK-MEL-5): > 100 µM (inactive)
- GI50 (Malme-3M): > 100 µM (inactive)
- GI50 (K562): > 100 µM (inactive)
- GI50 (IGROV-1): > 100 µM (inactive)
- GI50 (A498): > 100 µM (inactive)
- GI50 (TK-10): > 100 µM (inactive)
- GI50 (LOX IMVI): > 100 µM (inactive)
- GI50 (SF-539): > 100 µM (inactive)
- GI50 (EKVX): > 100 µM (inactive)
- GI50 (RPMI-8226): > 100 µM (inactive)
- GI50 (UACC-62): > 100 µM (inactive)
- GI50 (NCI-H23): > 100 µM (inactive)
- GI50 (KM-20L2): > 100 µM (inactive)
- GI50 (SF-268): > 100 µM (inactive)
- GI50 (HCT-15): > 100 µM
- GI50 (SK-MEL-28): > 100 µM (inactive)
- GI50 (SW-620): > 100 µM (inactive)
- GI50 (ACHN): > 100 µM (inactive)
- GI50 (KM12): > 100 µM (inactive)
- GI50 (OVCAR-5): > 100 µM (inactive)
- GI50 (SN12C): > 100 µM (inactive)
- GI50 (OVCAR-4): > 100 µM (inactive)
- GI50 (HL-60): > 100 µM (inactive)
- GI50 (UACC-257): > 100 µM (inactive)
- GI50 (RXF 393): > 100 µM (inactive)
- GI50 (U-251): > 100 µM (inactive)

Compound: Nc1nc2[nH]cnc2c(=O)[nH]1
- GI50 (HOP-92): > 100 µM (inactive)
- GI50 (M14): > 100 µM (inactive)
- GI50 (DLD-1): > 100 µM (inactive)
- GI50 (CCRF-CEM): > 100 µM (inactive)
- GI50 (SNB-78): > 100 µM (inactive)
- GI50 (COLO 205): > 100 µM (inactive)
- GI50 (UO-31): > 100 µM (inactive)
- GI50 (HT-29): > 100 µM (inactive)
- GI50 (OVCAR-3): > 100 µM (inactive)
- GI50 (NCI-H522): > 100 µM (inactive)
- GI50 (NCI-H226): > 100 µM (inactive)
- GI50 (DMS-273): > 100 µM (inactive)
- GI50 (HCT-116): > 100 µM (inactive)
- GI50 (NCI-H460): > 100 µM (inactive)
- GI50 (LXFL 529): > 100 µM (inactive)
- GI50 (XF498): > 100 µM (inactive)
- GI50 (SNB-75): 90.6 µM (inactive)
- GI50 (OVCAR-8): > 100 µM (inactive)
- GI50 (786-0): > 100 µM (inactive)
- GI50 (SR): > 100 µM (inactive)
- GI50 (HOP-62): > 100 µM (inactive)
- GI50 (SF-295): > 100 µM (inactive)
- GI50 (SK-MEL-2): > 100 µM (inactive)
- GI50 (HOP-18): > 100 µM (inactive)
- GI50 (A549): > 100 µM (inactive)
- GI50 (M19-MEL): > 100 µM (inactive)
- GI50 (CAKI-1): > 100 µM (inactive)
- GI50 (SK-OV-3): > 100 µM (inactive)
- GI50 (SK-MEL-5): > 100 µM (inactive)
- GI50 (Malme-3M): > 100 µM (inactive)
- GI50 (K562): > 100 µM (inactive)
- GI50 (IGROV-1): > 100 µM (inactive)
- GI50 (A498): > 100 µM (inactive)
- GI50 (TK-10): > 100 µM (inactive)
- GI50 (LOX IMVI): > 100 µM (inactive)
- GI50 (SF-539): > 100 µM (inactive)
- GI50 (EKVX): > 100 µM (inactive)
- GI50 (RPMI-8226): > 100 µM (inactive)
- GI50 (UACC-62): > 100 µM (inactive)
- GI50 (NCI-H23): > 100 µM (inactive)
- GI50 (KM-20L2): > 100 µM (inactive)
- GI50 (SF-268): > 100 µM (inactive)
- GI50 (HCT-15): > 100 µM
- GI50 (SK-MEL-28): > 100 µM (inactive)
- GI50 (SW-620): > 100 µM (inactive)
- GI50 (ACHN): > 100 µM (inactive)
- GI50 (KM12): > 100 µM (inactive)
- GI50 (OVCAR-5): > 100 µM (inactive)
- GI50 (SN12C): > 100 µM (inactive)
- GI50 (OVCAR-4): > 100 µM (inactive)
- GI50 (HL-60): > 100 µM (inactive)
- GI50 (UACC-257): > 100 µM (inactive)
- GI50 (RXF 393): > 100 µM (inactive)
- GI50 (U-251): > 100 µM (inactive)
